Earlier results as cited in US20030166006A1, “Glucose-1-phosphate thymidylyltransferase and method for selecting inhibitors thereof” (priority 2000, published 2003).

Target: RmlA from Pseudomonas aeruginosa (Pseudomonas aeruginosa, UniProt Q9HU22)
Conditions: allosteric feedback inhibition by final product of the four enzyme pathway; Melo & Glaser, 1965

RmlA from Pseudomonas aeruginosa, sequence (Q9HU22 1-293): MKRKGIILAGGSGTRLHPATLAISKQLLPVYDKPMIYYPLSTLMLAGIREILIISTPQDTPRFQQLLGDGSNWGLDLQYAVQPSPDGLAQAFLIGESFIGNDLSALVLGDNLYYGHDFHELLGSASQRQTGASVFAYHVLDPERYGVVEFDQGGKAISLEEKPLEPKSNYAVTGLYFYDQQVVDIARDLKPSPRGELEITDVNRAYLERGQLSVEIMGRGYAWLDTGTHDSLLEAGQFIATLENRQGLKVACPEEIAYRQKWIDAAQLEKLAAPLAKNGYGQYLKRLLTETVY

inhibition of RmlA: strongly inhibited
SMILES: Cc1cn([C@H]2C[C@H](O)[C@@H](COP(=O)(O)OP(=O)(O)OC3OC(C)C(O)C(O)C3O)O2)c(=O)[nH]c1=O (stereo partly drawn) [dTDP-rhamnose, 2′-deoxy-thymidylyl-diphospho-L-rhamnose]
